Results taken from patent US20080027025A1 (The Regents of the University of California, priority 2004, published 2008).

Experiments:
N2aPK1 cells = assay type: cell-based, murine
N2a cells = assay type: cell-based, Murine
[1] = tested on: Reporter T cells containing an integrated loxP-STOP-loxP GFP expression gene; assay type: cell-based
cells = conditions: cited from earlier work

Compound	cell surface association of rPrP^C-546 (N2a cells)	cellular uptake of rPrP^C-546 (N2a cells)	uptake of rPrP^C(23-90)-Cre into cells and subsequent DNA recombination (GFP-positive cells) [1]	further results
CCN(c1nc(N)c(C(=O)NC(=N)N)nc1Cl)C(C)C [EIPA]	did not block	prevented the cellular uptake		PrP^C to PrP^Sc conversion (proteinase K resistant PrP) (N2aPK1 cells): concentration-dependent inhibition
C=C1[C@@H](C)[C@H]2[C@H](Cc3ccccc3)NC(=O)[C@]23[C@H](OC(C)=O)/C=C/[C@@](C)(O)C(=O)[C@@H](C)C/C=C/[C@H]3[C@@H]1O [cytochalasin D]	did not block	prevented the cellular uptake		
C[C@@H]1[C@H](O)[C@@H](C)/C=C/C=C/CC/C=C/C=C/C=C/C=C/C(O[C@H]2O[C@H](C)[C@@H](O)[C@H](N)[C@@H]2O)CC2O[C@](O)(CC(O)C(O)CCC(O)CC(O)CC(O)CC(=O)O[C@H]1C)CC(O)C2C(=O)O (stereo partly shown) [nystatin]				internalization of rPrP^C-Alexa546 (N2a cells): prevented
chondroitin sulfate B			inhibited protein uptake into cells and subsequent DNA recombination in a dose-dependent manner	
heparin			inhibited protein uptake into cells and subsequent DNA recombination in a dose-dependent manner	surface binding of rPrP^C-Alexa546 (N2a cells): prevented; PrP^C infection of cells (cells): can prevent
